Marks after values point to notes of the source that are not given here.
Columns and labels:
γ-globin mRNA = γ-globin mRNA in anemic baboons given HU and DMB; format: in vivo; conditions: HU 3 days/week
fetal globin = conditions: cited from earlier work
F-cells = F-cells in Bfu-e erythroid progenitor cultures; format: cell-based
[1] = system: micronucleated erythrocytes (PCEs); conditions: cited from earlier work
[2] = system: β- and γ-globin gene promoters; experiment: Double-luciferase reporter assay of γ-globin expression in GM979 cells; format: cell-based, murine
From the text: DMB was compared to arginine butyrate (AB) for its ability to induce y-globin expression in a double-luciferase reporter assay in murine erythroleukemia (GM979) cells transfected with the pLCR linked to the β- and γ-globin gene promoters linked to a different luciferase gene.

In the case of `NC(=O)NO` [HU, hydroxyurea], the “γ-globin mRNA increase above baseline” value (γ-globin mRNA) is given as 80-120%, the “patients in whom clinical benefit is observed” value (fetal globin; SCD patients) is given as 40-50% and the “treatment required for optimal effects on HbF” value (fetal globin; at a level close to the maximum tolerated dose) is given as 6-9 months.
For `Nc1ncn([C@H]2C[C@H](O)[C@@H](CO)O2)c(=O)n1` [decitabine, 5-aza-2′-deoxycytidine, reference compound], the “F-cells increase above F-cell levels in control cultures” value (F-cells) was 66-104%.
In the case of `O=P1(N(CCCl)CCCl)NCCCO1` (stereo not shown) [cyclophosphamide], the “historical positive control values, mean±SD” value [1] is given as 19.2±15.5 MN PCEs/1,000 PCEs.
For Arginine butyrate [reference compound], the “Mean Fold Increase” value ([2]; 0.5 mM, compared to untreated controls, p ≦ 0.01) was 1.8* and the “γ/(γ + β) globin Expression, Range” value ([2]; Active Concentration 0.5 mM) was 0.029-0.047.
